# In paper PMC9873282, “Design, synthesis and evaluation of quinoline-O-carbamate derivatives as multifunctional agents for the treatment of Alzheimer’s disease” (Journal of Enzyme Inhibition and Medicinal Chemistry, 2023):
# Where “and” joins values, the source holds several entries; their conditions need not be identical. Equal values may be shown once.
# Legend:
# [1] = system: Aβ25-35-induced PC12 cells injury; assay: Neuroprotective effect on Aβ25-35-induced PC12 cells injury (CCK-8); type: cell-based; conditions: 25 µM Aβ25-35; model cell viability 57.3%
# Method: (§1) The neuroprotective effect of compounds 3a, 3c, 3e, 3f, 3k, 3m, and 3n on Aβ25–35-induced PC12 cells injury were evaluated using CCK-8 assay. […] Furthermore, as shown in Figure 12(B), when PC12 cells were exposed to 25 µM Aβ25-35, the cell viability sharply declined to 57.3% (p < 0.01) compared with untreated group.
# • Preparation of Aβ25-35 aggregation. Aβ25-35 was purchased from sigma. 1 mg Aβ25-35 was dissolved in 943 µL of sterilised deionised water to obtain 1 mM stock solution, aliquoted, –20 °C preservation. Removing the appropriate volume in a 48-well plate and incubated in a 37 °C incubator for two days to allow its ageing to accumulate and produce neurotoxicity. After aggregation was completed, the solution was diluted with PBS to get 25 µM solution of Aβ25-35 aggregation. • Neuroprotective effects of compounds on Aβ25-35-induced PC12 cells injury
# (§2) The PC12 cells during the logarithmic growth phase were digested and centrifuged with pancreatic enzyme solution, the cells were resuspended by adding the prepared media solution, and piped evenly with a pipette to seed in a 96-well cell culture plate (cell concentration adjusted to 2.0 × 10^4 cell·mL^−1). Each well was added 100 µL complete medium was added to each well and incubated at 37 °C and 5% CO2 for 24 h.
# After incubation for 24 h, PC12 cells were divided into blank group, control group, Aβ25-35 model group and tested compounds group (5, 10, 20 µM). Then the original medium was discarded, and 100 µL new complete medium were added to PC12 cells, and the tested compounds group was added to 100 µL complete medium containing different concentrations (5, 10, and 20 µM) of tested compounds, incubated for 2 h at 37 °C, 5% CO2 conditions. After incubation for 2 h, 10 µL Aβ25-35 solution was added to the tested compounds groups and model group (the final concentration of Aβ25-35 was 25 µM), and incubated for 24 h at 37 °C, 5% CO2 conditions, 10 µL CCK-8 was added to each well and further incubated for 1 h at 37 °C and 5% CO2. Finally, the OD value was measured at 450 nm using a microplate reader, and each concentration set three wells. The cell survival rate (%) was determined according to the following formula: cell viability (%) = {(ODdrug−ODblank)}/{(ODcontrol−ODblank)}.
# PC12 cells = assay: Cytotoxicity on PC12 cells; type: cell-based; conditions: at concentration below 40 µM
# Method: as §1, §2
# IL-6 = IL-6 production in LPS-stimulated BV-2 cells (ELISA); type: cell-based; conditions: 1 µM and 2 µM; 1 µg/mL LPS 24 h
# Method: (§3) Firstly, the cytotoxicity of compounds 3a, 3c, 3e, 3f, 3k, 3m and 3n were tested using CCK8 assay.
# (§4) BV-2 cells (2 × 10^5 cells/well) were seeded in a 24-well cell culture plates. The cells were divided into blank control group, model group (1 µg/mL LPS), LPS + 2 µM compound group, LPS + 1 µM compound group. Each drug group was pre-treated with corresponding concentration of drug solution for 8 h. After 8 h, the culture medium was aspirated out. Except for the blank control group, which was added with DMEM medium, the other groups were stimulated with 1 µg/mL LPS for 24 h. Then cell supernatant was aspirated and centrifuged at 3000 rpm for 3 min. The content of NO in cell culture supernatant was determined by Griess method, and the levels of cytokines IL-6 and IL-1β in cell culture supernatant were determined by IL-6 ELISA kit and IL-1β ELISA kit, respectively.
# eeAChE = molecular target: T1, eeAChE (Electrophorus electricus, UniProt O42275); assay: biochemical; parameters: species or system electric eel; conditions: AChE from electric eel; read-out: IC50 ± SD eeAChE
# T1 construct: eeAChE, from the electric eel; purchased Sigma Aldrich; host or cells: electric eel (natural source)
# T1 sequence (O42275 24-633): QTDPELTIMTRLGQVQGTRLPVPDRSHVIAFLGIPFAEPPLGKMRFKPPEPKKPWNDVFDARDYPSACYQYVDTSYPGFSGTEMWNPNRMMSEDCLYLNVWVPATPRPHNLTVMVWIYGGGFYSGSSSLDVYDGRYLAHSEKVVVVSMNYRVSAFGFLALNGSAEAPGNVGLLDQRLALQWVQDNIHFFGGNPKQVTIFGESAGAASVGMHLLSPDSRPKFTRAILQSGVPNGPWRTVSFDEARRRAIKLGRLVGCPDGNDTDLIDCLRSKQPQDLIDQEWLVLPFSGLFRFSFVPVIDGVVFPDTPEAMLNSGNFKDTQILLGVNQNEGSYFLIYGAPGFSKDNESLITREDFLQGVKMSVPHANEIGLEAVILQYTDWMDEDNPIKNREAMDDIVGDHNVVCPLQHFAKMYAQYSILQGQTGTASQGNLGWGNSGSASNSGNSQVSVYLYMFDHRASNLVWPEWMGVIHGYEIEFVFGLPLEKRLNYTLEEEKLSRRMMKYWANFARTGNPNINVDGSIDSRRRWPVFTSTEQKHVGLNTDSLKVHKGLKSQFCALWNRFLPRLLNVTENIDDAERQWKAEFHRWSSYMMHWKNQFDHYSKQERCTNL
# Method: (§5) The inhibitory activities of the synthesised compounds against eeAChE (from electric eel) and eqBuChE (from equine serum) were tested by the modified Ellman’s method[26]^,[27]. […] The determination of AChE and BuChE inhibitory potency of the synthesised compounds were evaluated by Ellman assay, the detailed procedure referred to our previous work[26]^,[27].
# eqBuChE = molecular target: T2, eqBuChE (Equus caballus, UniProt P81908); assay: biochemical; parameters: species or system equine; conditions: for inhibition at 25 µM: at 25 μM of compounds, read-out: eqBuChE inhibition rate; for IC50: BuChE from equine serum, read-out: IC50 ± SD eqBuChE; for SI = IC50 (AChE)/IC50 (BuChE): eeAChE/eqBuChE
# T2 construct: eqBuChE, from equine serum; purchased Sigma Aldrich; host or cells: equine serum (natural source)
# T2 sequence (P81908 whole entry): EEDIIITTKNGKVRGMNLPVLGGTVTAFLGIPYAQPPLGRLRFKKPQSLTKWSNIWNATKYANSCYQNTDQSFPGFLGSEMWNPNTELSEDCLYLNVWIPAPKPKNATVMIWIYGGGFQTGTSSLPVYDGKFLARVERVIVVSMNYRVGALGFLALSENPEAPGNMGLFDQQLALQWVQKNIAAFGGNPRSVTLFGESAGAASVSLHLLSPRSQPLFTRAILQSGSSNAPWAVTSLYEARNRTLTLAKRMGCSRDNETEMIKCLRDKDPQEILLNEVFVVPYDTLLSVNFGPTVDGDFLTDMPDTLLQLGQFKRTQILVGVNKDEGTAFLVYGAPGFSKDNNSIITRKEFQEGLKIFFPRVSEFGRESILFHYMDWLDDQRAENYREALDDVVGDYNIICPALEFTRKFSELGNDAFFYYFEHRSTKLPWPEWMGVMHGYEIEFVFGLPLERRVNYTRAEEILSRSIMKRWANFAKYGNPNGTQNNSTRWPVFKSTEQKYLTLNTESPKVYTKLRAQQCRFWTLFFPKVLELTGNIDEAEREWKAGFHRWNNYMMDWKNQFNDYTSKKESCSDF
# Method: as §5
# IL-1β = IL-1β production in LPS-stimulated BV-2 cells (ELISA); type: cell-based; conditions: 1 µg/mL LPS 24 h
# Method: as §3, §4
# NO = NO release in LPS-stimulated BV-2 cells (Griess method); type: cell-based; conditions: 1 µg/mL LPS 24 h
# Method: as §3, §4
# BV-2 cells = assay: Cytotoxicity on BV-2 cells (CCK8 assay); type: cell-based; conditions: compounds at 2 µM
# Method: as §3
# BV-2 cells were cultured in DMEM containing 10% foetal bovine serum, 100 U/mL penicillin, 100 U/mL streptomycin, and 1% nonessential amino acid at 37 °C with 5% CO2.
# BV-2 cells in logarithmic growth stage were digested and centrifuged, and then resuspended in DMEM medium containing 1% penicillin-streptomycin and 10% foetal bovine serum. The cells was adjusted to 1.2 × 10^4 cells/well, and then seeded evenly in 96-well cell culture plates. The cells were incubated for 36 h at 37 °C with 5% CO2. After incubation, the cells were added to different concentrations (10 and 2 µM) of tested compounds, and incubated for 24 h at 37 °C with 5% CO2. Then, 10 µL CCK-8 solution was added to each well, and incubated for another 1 h at 37 °C with 5% CO2. The OD values were tested at […]. The cell viability (%) = {(ODdrug−ODblank)}/{(ODcontrol−ODblank)} × 100%.
# ACh = ACh level in AlCl3-induced zebrafish AD model tissue; type: in vivo; conditions: 8 µM; model 7.3, untreated 13.9 pmol/L
# Source text: . After the behavioural experiments, the 168hpf zebrafish were killed and ground, the tissue were used to test the AChE activity and ACh levels. […] .
# hAChE = molecular target: T3, hAChE (Homo sapiens, UniProt P22303); assay: biochemical; conditions: from human erythrocytes; read-out: IC50 ± SD hAChE
# T3 construct: hAChE, from human erythrocytes AChE; purchased Sigma Aldrich; host or cells: human erythrocytes (natural source)
# T3 sequence (P22303 32-617 isoform P22303-2 limits assumed): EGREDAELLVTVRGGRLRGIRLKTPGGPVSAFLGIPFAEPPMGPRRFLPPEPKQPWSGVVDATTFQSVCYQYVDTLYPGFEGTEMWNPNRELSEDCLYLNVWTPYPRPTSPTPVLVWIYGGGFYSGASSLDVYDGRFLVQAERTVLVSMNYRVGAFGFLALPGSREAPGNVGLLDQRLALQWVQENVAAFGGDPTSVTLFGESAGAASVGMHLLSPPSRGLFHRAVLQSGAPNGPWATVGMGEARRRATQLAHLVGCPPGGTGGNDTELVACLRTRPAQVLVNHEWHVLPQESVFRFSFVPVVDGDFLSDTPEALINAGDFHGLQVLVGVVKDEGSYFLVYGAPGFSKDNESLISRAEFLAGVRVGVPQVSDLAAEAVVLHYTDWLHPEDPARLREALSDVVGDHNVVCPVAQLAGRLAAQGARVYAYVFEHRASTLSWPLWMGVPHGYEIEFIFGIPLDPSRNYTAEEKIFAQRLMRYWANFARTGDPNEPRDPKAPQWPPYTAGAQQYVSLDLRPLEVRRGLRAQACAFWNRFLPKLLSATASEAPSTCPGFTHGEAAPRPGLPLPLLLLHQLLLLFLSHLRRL
# Method: (§6) Acetylcholinesterase (eeAChE, from the electric eel; hAChE, from human erythrocytes AChE), butyrylcholinesterase (eqBuChE, from equine serum; hBuChE, human serum BuChE), 5,5′-dithiobis-2-nitrobenzoic acid (Ellman’s reagent, DTNB), acetylthiocholine chloride (ATC), and butyrylthiocholine chloride (BTC) were purchased form Sigma Aldrich. The determination of AChE and BuChE inhibitory potency of the synthesised compounds were evaluated by Ellman assay, the detailed procedure referred to our previous work[26]^,[27].
# hBuChE [2] = molecular target: T4, hBuChE (Homo sapiens, UniProt P06276); assay: biochemical
# T4 construct: hBuChE, human serum BuChE; purchased Sigma Aldrich; host or cells: human serum (natural source)
# T4 sequence (P06276 29-602): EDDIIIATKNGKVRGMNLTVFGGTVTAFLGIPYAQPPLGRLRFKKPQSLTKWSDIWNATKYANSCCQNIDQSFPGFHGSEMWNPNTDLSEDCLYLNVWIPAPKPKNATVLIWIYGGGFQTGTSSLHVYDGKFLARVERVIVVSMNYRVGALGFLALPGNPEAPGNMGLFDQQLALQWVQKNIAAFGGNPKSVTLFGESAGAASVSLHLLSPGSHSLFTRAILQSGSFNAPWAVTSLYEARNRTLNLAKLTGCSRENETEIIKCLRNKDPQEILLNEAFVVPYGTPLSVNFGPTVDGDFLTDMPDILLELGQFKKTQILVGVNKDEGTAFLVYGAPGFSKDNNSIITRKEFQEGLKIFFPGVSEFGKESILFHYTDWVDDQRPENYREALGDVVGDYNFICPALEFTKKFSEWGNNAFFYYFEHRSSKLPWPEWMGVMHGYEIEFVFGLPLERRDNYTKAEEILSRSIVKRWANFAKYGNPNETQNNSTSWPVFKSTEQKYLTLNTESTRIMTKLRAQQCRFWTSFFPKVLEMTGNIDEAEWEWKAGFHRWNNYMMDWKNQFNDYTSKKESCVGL
# Method: as §6
# hBuChE [3] = molecular target: T4, hBuChE; assay: hBuChE reversibility of inhibition (recovery after dilution); type: biochemical
smiles,measurement,setting,value
"CCN(CC)C(=O)Oc1cccc2cccnc12 [Compound 3n, Quinolin-8-yl diethylcarbamate]",neuroprotective effect on Aβ25-35-induced PC12 cells injury,[1],significant neuroprotective effects at 5 and 10 µM
same,cytotoxicity on PC12 cells,PC12 cells,did not show any cytotoxicity
same,levels of IL-6 compared with model group,IL-6,significantly decreased
same,IC50,eeAChE,9.7 ± 0.07 µM
same,inhibition at 25 µM,eqBuChE,2.4 ± 0.01%
same,levels of IL-1β compared with model group,IL-1β,did not obviously decrease
same,release volume of NO,NO,significantly decreased
same,cell viability of BV-2 cells,BV-2 cells,did not show obvious change
"CCN(CC)C(=O)Oc1ccc2ncccc2c1 [Compound 3j, Quinolin-6-yl diethylcarbamate]",IC50,eeAChE,12.2 ± 0.19 µM
same,inhibition at 25 µM,eqBuChE,30.7 ± 1.26%
"O=C(Oc1cccc2cccnc12)N1CCOCC1 [Compound 3p, Quinolin-8-yl morpholine-4-carboxylate]",IC50,eeAChE,12.6 ± 0.76 µM
same,inhibition at 25 µM,eqBuChE,10.8 ± 0.07%
"COc1cc2c(cc1OC)C(=O)C(CC1CCN(Cc3ccccc3)CC1)C2 (centres unmarked) [Donepezil, reference compound]",ACh activity (level),ACh,14.0 pmol/L
"CCN(CC)C(=O)Oc1ccnc2ccccc12 [Compound 3b, Quinolin-4-yl diethylcarbamate]",IC50,eeAChE,12.7 ± 0.13 µM
same,IC50,eqBuChE,1.06 µM and 1.1 µM
same,SI = IC50 (AChE)/IC50 (BuChE),eqBuChE,11.5
same,IC50,hAChE,30.2 ± 0.61 µM
same,IC50,"hBuChE [2]; from human serum, read-out: IC50 ± SD hBuChE",5.39 µM and 5.4 µM
same,SI = IC50 (AChE)/IC50 (BuChE),hBuChE [2]; hAChE/hBuChE,5.6
"O=C(Oc1cccc2ncccc12)N1CCOCC1 [Compound 3h, Quinolin-5-yl morpholine-4-carboxylate]",IC50,eeAChE,12.9 ± 0.07 µM
same,IC50,eqBuChE,1.76 µM and 1.8 µM
same,SI = IC50 (AChE)/IC50 (BuChE),eqBuChE,7.2
"CCN(C)C(=O)Oc1cccc([C@H](C)N(C)C)c1 [Rivastigmine, reference compound]",hBuChE activity (% control),"hBuChE [3]; 0.1*IC50, diluted",46.9 % control
same,hBuChE activity restored,"hBuChE [3]; 0.1 × IC50, 120 min",62.3%
same,hBuChE activity restored,"hBuChE [3]; 0.1 × IC50, 240 min",121.8%
same,hBuChE activity (% control),"hBuChE [3]; 1*IC50, diluted",52.3 % control
same,hBuChE activity (% control),"hBuChE [3]; 1*IC50, undiluted",51.4 % control
"CC(C)N(C(=O)Oc1cccc2cccnc12)C(C)C [Compound 3q, Quinolin-8-yl diisopropylcarbamate]",IC50,eeAChE,14.8 ± 0.68 µM
same,inhibition at 25 µM,eqBuChE,1.7 ± 0.01%
